US11612583B2, “Disease modifying methods for treating neurodegenerative diseases using nootropic agents” (priority 2018, dated 2023)
“Also recorded” adds a separate entry of the source.

Experiments:
[1] = system: primary cortical neurons treated with rotenone; assay: Oxygen consumption rates (XF24e Extracellular Flux Analyzer) in rotenone-treated primary cortical neurons; type: cell-based, mouse
Experimental: Rotenone (1.26 mM stock, Sigma, Cat #R8875) was freshly prepared in water prior to each use. Stocks of rotenone were maintained in the dark at −20° C. for up to 6 months. Rotenone was used at 65 μM for neuroblastoma cells and at 65 nM for primary cortical neurons for 4-6 hours to induce oxidative and autophagic stress.
Forskolin (Coleus forskohlii, >98% HPLC, Sigma Aldrich) was prepared in DMSO as 5 mg/ml stocks (stable for up to 6 months if kept in the dark and stored in −20° C. until ready to use). On the day of the experiment, the forskolin aliquot was thawed and cells were treated once with forskolin at a concentration of 1 to up to 10 μM of forskolin in complete media for treating primary cortical neurons or for intraperitoneal administration of PINK1 knockout mice or PINK1 knockout rats.
Rotenone-treated primary neurons were then exposed to 250 μM dibutyryl cyclic AMP (dbt-cAMP) or with the parental or water-soluble form (NKH477) of Forskolin (6.5 μM-8.5 μM, 24 hrs). The basal oxygen consumption rates (OCRs), a proxy for mitochondrial function, were analyzed by using an XF24^e Extracellular Flux Analyzer (Agilent Technologies). The maximal oxygen consumption rates (OCRs), a proxy for maximal buffering capacity of mitochondrial function, were also analyzed by using an XF24^e Extracellular Flux Analyzer in primary cortical neurons treated with 1 μM FCCP, an ionophore that acts as a mitochondrial uncoupler.

[2] = system: primary cortical neurons treated with rotenone; assay: Dendrite length analysis (MAP2B immunostaining); type: cell-based, mouse; conditions: after rotenone 65 nM; Forskolin/NKH477 6.5 μM-8.5 μM or 250 μM dbt-cAMP; FIG. 5
PINK1-KO rats [3] = assay: Tapered beam balance test (coordination and balance) in PINK1-KO rats; type: in vivo, rat; conditions: intraperitoneal Forskolin 1.6 mg/kg with or without Noopept 0.05 μg/kg; 10 days; post vs pre-treatment; FIG. 10
Experimental: All experiments involving mice and rats were performed in accord with ARRIVE (Animal Research: Reporting of In Vivo Experiments) guidelines. Wild-type C57BL/6 and PINK1 knockout mice (B6.129S4-Pink1^tm1Slm/J), wild-type (Long Evans rats) and PINK1 knockout (LEH-PINK1^tm1sage.Park6) rats (SAGE labs through Horizon Discovery) were handled humanely and appropriately per the ARRIVE guidelines. All mice were housed at the Laboratory of Animal Resources (University of Nevada, Reno) in cages containing sufficient bedding, food (pellets), water, with sufficient social, nutritional and “enriched” environments, and maintained in HVAC-pressurized/sterile environment and in 12:12 hr light/dark cycles.
Wild-type (PINK1+/+) or PINK1 knockout (PINK1−/−) rats were treated with intraperitoneal injections of DMSO control or of Forskolin (1.6 mg/kg body weight) once every 2 days for two doses followed by co-administration with Noopept (0.05 μg/kg) for three more doses (once every two days) for up to a total treatment time of 10 days. […] In addition, muscle coordination and balance were assessed by subjecting the rats to cross a 1-meter, tapered beam balance (2 cm width) for up to three trials per animal. […]

PINK1-KO rats [4] = assay: Tyrosine hydroxylase immunofluorescence in midbrain slices of PINK1-KO rats; type: in vivo, rat; conditions: female PINK1-KO rats; intraperitoneal Forskolin 1.6 mg/kg with or without Noopept 0.05 μg/kg; FIG. 13
Experimental: Wild-type (PINK1+/+) or PINK1 knockout (PINK1−/−) rats were treated with intraperitoneal injections of DMSO control or of Forskolin (1.6 mg/kg body weight) once every 2 days for two doses followed by co-administration with Noopept (0.05 μg/kg) for three more doses (once every two days) for up to a total treatment time of 10 days. At the end of each treatment, a battery of motor tests were performed in vehicle-treated or WT and PINK1-KO rats treated with compounds to analyze for muscle strength in hind legs by using a grip strength analyzer. In addition, muscle coordination and balance were assessed by subjecting the rats to cross a 1-meter, tapered beam balance (2 cm width) for up to three trials per animal. Another group of wild-type and PINK1-KO rats were sacrificed, and intracardially perfused with saline followed by 4% formaldehyde. Midbrain slices from wild-type and PINK1-KO rats were immunostained for tyrosine hydroxylase (TH, purple) to identify midbrain dopamine neurons. […] (*:p<0.05 vs. WT/vehicle, **:p<0.05 vs. PINK1-KO/vehicle, One-Way ANOVA, Tukey's test, N=4-7 rats per group).

Protein Kinase A (PKA) = assay: PKA activity in cortex lysates after intranasal administration (ELISA-based colorimetric kit); type: in vivo, wild-type Long Evans Hooded rats; conditions: for blood brain barrier crossing: intranasal formulation, inferred from increased cortical PKA activity within 24 hrs; for PKA activity in the cortex: intranasal, 6 μl per nostril, 24 hr, 2.5 and 10 μM in cerebrospinal fluid, vs 0 μM, FIG. 14
Experimental: PKA activity was measured in cortex of wild-type Long Evans Hooded rats by determining the level of PKA-mediated substrate phosphorylation by using an ELISA-based colorimetric PKA activity kit per manufacturer's recommendations (Enzo Life Sciences; ADI-EKS-390A) with the following minor modifications. To determine PKA-specific activity, lysates form the cortex were treated with H89, a pharmacological inhibitor of PKA at 10 μM for 5 min, and the H89-resistant kinase activity was subtracted from total kinase activity of untreated tissue lysates.
Combine 1.68 grams K2HPO4 ([…]), 5.28 grams KH2PO4 ([…]), and 81.8 grams NaCl ([…]). Add distilled H2O up to 1 L total volume. Autoclave and sterilize solution. Adjust the pH of the solution to 7.4 using a pH meter. Add 1 gram sodium benzoate (0.1%) or propyl benzoic acid. Reconstitute up to 2 mg of lyophilized, sterile, pharmaceutical grade water-soluble Forskolin analogue, for example water soluble analogue NKH477, in 1 mL of PBS by using a 1 mL syringe. Transfer the reconstituted Forskolin onto the receiving chamber of an intranasal atomizer (NAD nasal) prior to intranasal delivery.
(*:p<0.05 vs. 0 μM, One-Way ANOVA, Tukey's test, N=3 rats per group).

C=C[C@@]1(C)CC(=O)[C@]2(O)[C@@]3(C)[C@@H](O)CCC(C)(C)[C@@H]3[C@H](O)[C@H](OC(C)=O)[C@@]2(C)O1 [Forskolin]
spare respiratory capacity (Maximal OCRs-Baseline OCRs) ([1]; after rotenone 65 nM 24 hours, 6.5 μM-8.5 μM, 24 hrs, 1 μM FCCP, FIG. 2): completely restored; also recorded: significantly restored
baseline mitochondrial respiration (basal OCRs) ([1]; after rotenone 65 nM 24 hours, Forskolin or NKH477 6.5 μM-8.5 μM, 24 hrs, FIG. 1): partially or completely restored; also recorded: significantly restored
protection against rotenone-mediated neurodegeneration ([1]; concentrations of Forskolin greater than 12.5 μM): did not confer significant protection
concentration of maximal effects on protection against loss of neuronal metabolism (oxidative phosphorylation and glycolysis) ([1]; rotenone-treated primary neurons, bimodal): about 10 μM
dendrite arbors (total dendrite length per neuron) [2]: reversed the loss of dendrites; also recorded: completely blocked; also recorded: significantly restored
coordination and balance (motor score, falls and slips per crossing) (PINK1-KO rats [3]): can reverse the loss of coordination and balance; also recorded: can reverse the loss of balance and coordination
substantia nigra/midbrain dopamine neurons (integrated density of TH immunofluorescence) (PINK1-KO rats [4]): completely reverses the loss of midbrain dopamine neurons; also recorded: significantly reversed neurodegeneration
blood brain barrier crossing (Protein Kinase A (PKA)): can efficiently cross the blood brain barrier; also recorded: efficiently crosses the blood brain barrier
blood brain barrier crossing (Protein Kinase A (PKA); listed as forskolin): crosses the blood brain barrier efficiently
PKA activity in the cortex (Protein Kinase A (PKA)): significantly increases PKA activity
PKA activity in the cortex (Protein Kinase A (PKA); listed as forskolin): enhances neuroprotective PKA activity
